A word on the melting point: it is the temperature, or range, at which the solid turns liquid.

`Clc1cc2c(cc1Cn1ccnc1)OCO2` yielded a melting point of 99 to 102 °C.

In turn, `OCC1(CO)Nc2cccc3cccc(c23)N1` returned a melting point of 158 °C.

On to `CC(C)(C)c1ccc(C(=O)Nc2cn3cc(-c4ccncc4)ccc3n2)cc1`, for which the melting point fell in the range of 293 to 294 °C.

Turning to `O=C(c1ccc(Cn2ccc3ccccc32)cc1)N1CCC(N2CCCC2)C1` (centres undefined), the melting point lay in the range of 141 to 153 °C.

`CCC[C@](CC=O)(CCc1ccccc1)OCOc1ccc(-c2ccccc2)cc1` displayed a melting point of 47 to 48.5 °C.

`Cc1ccc2c(=O)n(S(=O)(=O)c3ccc(Cl)cc3)c(=O)[nH]c2c1C` had a melting point of 241 to 245 °C.

For `Cc1ccc(-c2ccnc3c(C(=O)c4cccs4)cnn23)cc1NC(=O)NC(C)C`, the melting point lay within 225 to 227 °C.

Turning to `O=C(Nc1cccc(S(=O)(=O)N2CCOCC2)c1)c1cnn2c(C(F)(F)F)cc(-c3ccc(Cl)cc3)nc12`, the melting point came to 144 °C.

As to `CCCCCCCCCCCCCCc1ccc2c(c1)C(=O)C(=O)N2`, the melting point lay within 87 to 89 °C.

With `CC=C1CCC2C3C(O)CC4CC(O)CCC4(C)C3CCC12C` (centres undefined), the melting point lay within 160 to 161 °C.

For the molecule `COC(=O)COc1c(Cl)cc(Cl)c(C#N)c1Cl`, the melting point lay in the range of 110 to 112 °C.

With `CCCCc1ccc(C(=O)NC(C)(C(N)=O)C(C)C)nc1` (centres undefined), the melting point is 83 to 86 °C.

Regarding `O=C1OC(c2ccccc2)(c2ccccc2)C2CN(S(=O)(=O)/C=C/c3ccc(F)cc3)CCN12` (centres undefined), the melting point lay in the range of 248 to 249 °C.

Molecule `CC(C)(C)OC(=O)Cc1nn(Cc2nc3cc(C(F)(F)F)ccc3s2)c(=O)c2cccnc12` yielded a melting point of 121 to 122 °C.

Turning to `O=C(O)CCCCCCCCCCCCCCC(=O)ON1C(=O)CCC1=O`, the melting point fell in the range of 118 to 121 °C.

The molecule `C1=Cc2ccccc2C=CN1` displayed a melting point of 186 to 190 °C.

Turning to `Cc1ccn2nc(S(=O)(=O)N(C(=O)c3ccccc3)c3c(Cl)cccc3Cl)nc2n1`, the melting point fell in the range of 187 to 189 °C.

`CCN(CC)CCN1C(=O)Nc2ccncc2C1c1ccccc1` (centres undefined) showed a melting point of 132 to 134 °C.

As for `CC1(C(F)(F)F)CCCN1C(=O)c1c(F)cccc1F` (centres undefined), the melting point was in the range of 119 to 120 °C.

`CN(C)c1ccc(C(=CC(c2ccc(N(C)C)cc2)c2ccc(N(C)C)cc2)c2ccc(N(C)C)cc2)cc1` returned a melting point of 189 to 190 °C.

Molecule `Cn1nc(C(F)(F)F)cc1Oc1cc(C#N)cc(OCc2ccc(F)cc2F)n1` gave a melting point of 109 °C.

`NC(=O)c1ccc(F)c2c1OCC(N(CCCCc1c[nH]c3ccc(F)cc13)CC1CC1)C2` (centres undefined) registered a melting point of 116 °C.

In turn, `Cc1cccc(C)c1C(CNC(=O)OC(C)(C)C)COCc1c(F)cccc1F` (centres undefined) gave a melting point of 100 °C.

`Clc1ccc2scc(-c3ccncc3)c2c1` had a melting point of 90 to 91 °C.

For the molecule `CSCC(C)C(=O)N(C)c1sc(-c2cccnc2)nc1Cl` (centres undefined), the melting point was 70 to 73 °C.

Take `N#Cc1c(N)ccc2cc(Cl)cnc12`: the melting point was 246 °C.

`CCOc1ccc(C(CC(N)=O)N2C(=O)c3ccccc3C2=O)cc1` (centres undefined): the melting point stood at 191 °C.

The molecule `CNS(=O)(=O)Cc1ccc(Nc2nc(Nc3ccccc3)c3cc(OC)ccc3n2)cc1` returned a melting point of 212 to 215 °C.

As for `C[C@@H](NC(=O)c1c[nH]c2ncc(-c3nn(C)c4cccnc34)nc12)C(=O)N1CC(C#N)C1`, the melting point lay within 194 to 198 °C.

Take `Cc1cnc(N2C(=O)C(O)=C(C(=O)c3ccc(C(C)C)cc3)C2c2ccc(OC(F)(F)F)cc2)s1` (centres undefined): the melting point fell in the range of 243 to 244 °C.

In turn, `O=c1c(C(F)(F)F)cn(C2CC(O)C(CO)O2)c(=O)n1C1CCCO1` (centres undefined) had a melting point of 127 to 128 °C.

Regarding `CNc1cc([N+](=O)[O-])cc([N+](=O)[O-])c1`, the melting point lay within 153 to 154 °C.

In the case of `CC(C)OC(=O)C(C)Oc1ncn(-c2ccccc2)n1` (centres undefined), the melting point came out at 104 °C.

On to `COC(=O)CCCc1cc2cc(Cl)ccc2n1S(=O)(=O)c1ccc2sc(C)nc2c1`, for which the melting point lay within 136 to 138 °C.

The molecule `CN(O)C(=O)C=Cc1ccc(F)cc1` showed a melting point of 141 to 142 °C.

`CC1Oc2cc(N)c([N+](=O)[O-])cc2O1` (centres undefined) registered a melting point of 139 °C.

The molecule `O=c1oc(=O)n(Cc2ccco2)c2ccccc12` had a melting point of 131 to 133 °C.

With `Cc1ccccc1C(=O)Nc1ccc(C(=O)N2CCCC(OCC(=O)N3CCSCC3)c3ccccc32)cc1` (centres undefined), the melting point was in the range of 235 to 237 °C.

The molecule `CCOC(=O)C=C(Nc1cn[nH]c1)C(=O)OCC` came in with a melting point of 69 to 71 °C.

With `CNc1nc(NC)nc(NC)n1`, the melting point was found to be 133 °C.

The molecule `O=C1[C@H]2Cc3c([nH]c4ccccc34)[C@@H](c3ccc4c(c3)OCO4)N2C(=O)C2CNCCN12` (some centres undefined) had a melting point of 226 to 237 °C.

The molecule `O=C(CCOCCOCCC(=O)Oc1cc(O)cc(O)c1)Oc1cc(O)cc(O)c1` gave a melting point of 166 to 168 °C.

In the case of `CC(=O)NC[C@H]1CN(c2ccc3c(c2)C[C@@H](C)N3C=O)C(=O)O1`, the melting point fell in the range of 158 to 159 °C.

Turning to `COc1cc(OC)c2c(C)c(CCN3CCN(c4ccccc4OC)CC3)c(=O)oc2c1`, the melting point was in the range of 140 to 142 °C.

Regarding `CCCCc1nc(Cl)c(COC(C)=O)n1Cc1ccc(-c2cccc(C(=O)O)c2)cc1`, the melting point was 172 to 173 °C.

Turning to `COC1(C(=O)CCc2ccc(-c3ccc(O)cc3)cc2)C=CC(Cl)=CC1N` (centres undefined), the melting point is 145 to 150 °C.

Regarding `COc1c([N+](=O)[O-])ccc2c1C(=O)CC1(CCN(C(C)=O)CC1)O2`, the melting point lay within 160 to 165 °C.

In turn, `Cc1nc2nc(S(=O)(=O)Cl)nn2cc1Cl` showed a melting point of 99 to 101 °C.

Consider `CCOC(=O)C1=C(C)N=C(NC)N(C(=O)OCC)C1c1cccc([N+](=O)[O-])c1` (centres undefined), for which the melting point lay in the range of 112 to 114 °C.

As for `Cc1cccc(C)c1-n1c(C)nnc1S`, the melting point fell in the range of 189 to 192 °C.

`COc1ccc(C(=O)Nc2ccccc2)cc1Nc1cccc([N+](=O)[O-])c1` gave a melting point of 220 to 221 °C.

`COc1ccc2ccc(=O)[nH]c2c1`: the melting point was 190 °C.

`Cc1c(C)c2c(c(C)c1Br)OC(C)(C)C2=O` registered a melting point of 125 to 127 °C.

In turn, `Cc1ccccc1C(CCC(=O)O)Oc1cc(OCc2ccsc2)ccc1-c1cc(C(=O)O)on1` (racemic) had a melting point of 162 to 164 °C.

On to `COc1ccc(Cl)c2c1CN(Nc1ccncc1)C2`, for which the melting point lay within 229 to 230 °C.

Molecule `CCC(CC)n1nc(C)c2c(Cl)nc(C)nc21` registered a melting point of 33 to 34 °C.

Molecule `CC(CS(=O)(=O)c1ccccc1)C1CC=C2C3=C(CCC21C)C1(C)CCC(OC(=O)c2ccccc2)C(C)(C)C1CC3` (centres undefined) displayed a melting point of 175 to 188 °C.

`O=C(NCCCS(=O)c1ccncc1)c1cccs1` (centres undefined) yielded a melting point of 101 to 102 °C.

Regarding `Cc1ccc(C2=NNC(=O)CC2)cc1O`, the melting point was in the range of 216 to 218 °C.

Molecule `CCCC(C)(C)NC(=S)Nc1cc(Cl)cc(Cl)c1` returned a melting point of 115 to 117 °C.

As to `C=CC[C@@H]1C[C@@H](COS(C)(=O)=O)NC1=O`, the melting point was 62 to 63 °C.

Regarding `CCCCCC(C)(C)NC(=O)CCl`, the melting point was in the range of 36 to 37 °C.

`CCn1ccc(=O)[nH]c1=O` gave a melting point of 150 °C.

Take `CCOC(=O)C(=O)Nc1ccc(Cc2ccc(NC(=O)C(=O)OCC)cc2)cc1`: the melting point was 146 to 147 °C.

In the case of `CCN(CC)[C@@H]1C(=O)N(C)[C@H]1c1ccccc1` (relative stereo), the melting point is 70 to 71 °C.

Regarding `CCCCOC(=O)c1cn2ccnc2s1`, the melting point is 84 to 86 °C.

Take `O=C(Nc1ccc(OCc2ccncc2)c2ccccc12)c1cc(F)cc(N2CCOCC2)c1`: the melting point lay within 157 to 159 °C.

In turn, `COC(=O)c1nccnc1Nc1ccc(Cl)cc1[N+](=O)[O-]` displayed a melting point of 191 to 192 °C.

`CCC(CO)Nc1ccc(-c2cccc(C(F)(F)F)c2)nn1` (centres undefined) gave a melting point of 84 to 87 °C.

As to `CNc1ccc2cnc(S(C)=O)nc2n1` (centres undefined), the melting point is 185 °C.

Take `CC(O)(C(=O)Nc1ccc(S(=O)(=O)F)cc1)C(F)(F)F` (centres undefined): the melting point lay within 152 to 154 °C.

In turn, `O=C(O)Cc1coc2cc(OCc3cccc(OCc4ccc(C(F)(F)F)cc4)c3)ccc12` showed a melting point of 155 to 157 °C.

The molecule `COC(=O)c1ccccc1CN1CCN(c2nc(C)c(C(=O)NCc3ccccc3)s2)C1=O` gave a melting point of 130 to 133 °C.

Regarding `CCCC(=O)Nc1ccc2c(c1)C(=O)c1cc(NC(=O)CCC)ccc1C2=O`, the melting point was determined as 275 °C.

The molecule `CC(C)(C)OC(=O)c1ncn2c1[C@@H]1CCN1C(=O)c1ccccc1-2` had a melting point of 185 to 187 °C.

The molecule `COC(=O)c1cc(S(C)(=O)=O)c(NS(=O)(=O)c2sc3ccc(Cl)cc3c2C)cc1C` had a melting point of 205 to 207 °C.

`O=C1c2ccccc2CCC1CN1CCC(O)(c2ccccc2)CC1` (centres undefined): the melting point was 164 to 167 °C.

With `Cn1nc(-c2c(F)cccc2Cl)nc1-c1ccc(OCc2ccc(C(F)(F)F)cc2F)c(Cl)c1`, the melting point lay within 109 to 111 °C.

With `CN1C(=O)CN=C(c2ccccc2F)c2c1cc(Cl)c(NC(=O)C(F)(F)F)c2Cl`, the melting point was in the range of 238 to 240 °C.

`Cc1nc(O)c([N+](=O)[O-])c(Cl)n1` came in with a melting point of 194 to 196 °C.

The molecule `Nc1cc(Br)nc(CO)c1` yielded a melting point of 144 to 145 °C.

`NC(=O)N1C(=O)C(=C(OC(=O)c2ccc(C(=O)OCc3ccccc3)cc2)c2cccs2)c2cc(F)c(Cl)cc21` showed a melting point of 212 to 218 °C.

As for `Nc1c(C(=O)NC(Cc2ccc(OCc3ccccc3)cc2)C(=O)O)oc2cc(-c3ccc(Cl)cc3)ccc12` (centres undefined), the melting point was 250 °C.

`CC1(C)CC(=O)CC(C)(C)N1SSSSN1C(C)(C)CC(=O)CC1(C)C`: the melting point was in the range of 148 to 150 °C.

Molecule `Cc1nc(-c2cc3c(OC[C@@H](O)CN4CCC(c5ccc6ccccc6c5)CC4)cccc3o2)no1` showed a melting point of 146 to 148 °C.

For `OCC1CCC(CBr)CC1` (centres undefined), the melting point fell in the range of 146 to 149 °C.

On to `CCCCc1nc(C(C)O)c(C#N)n1Cc1ccc(-c2ccccc2C(=O)O)cc1` (centres undefined), for which the melting point was in the range of 200 to 201 °C.

The molecule `CCOC(=O)NC(=O)N(O)Cc1c(C)n(C(=O)c2ccc(Cl)cc2)c2ccc(OC)cc12` gave a melting point of 148 °C.

With `COC(=O)C(C)(C)OCc1cc2cc(C(F)(F)F)ccc2n1S(=O)(=O)c1ccc2c(c1)OCCN2C`, the melting point lay within 96 to 98 °C.

The record behind these values is a melting point compilation (Tetko et al.; mined from patent text by program, amines drawn as free bases though some values may be those of a salt).
